Assay [1] deals with T47D (PI3Kα-H1047R) cell line. The experiment in a line: HTRF phospho-AKT(S473) cell assay in T47D cells. The format is cell-based, human. The protocol:
(§1) Compounds in the present disclosure were tested in a cell based HTRF phospho-AKT(S473) (CisBio/Revvity) assay in human breast cancer cell lines as a measurement of PIK3CA activity through measuring AKT, a downstream effector. The activity of mutant PI3Kα-H1047R and PI3Kα-Wild Type was measured in the T47D (PI3Kα-H1047R) and SKBR3 (PI3Kα-Wild Type) cell lines, respectively. T47D cells were plated at 20,000 cells per well in 50 μL in RPMI medium supplemented with 10% FBS and 0.2 units/mL insulin, in 384 well plates. SKBR3 cells were plated at 25,000 cells per well in 50 μL in McCoy's 5A medium supplemented with 10% FBS, in 384 well plates. Cells were plated using a Combi Multidrop reagent dispenser (ThermoFisher), and placed in 5% CO2, 37° C. incubator overnight to adhere.
(§2) The next day, cells were treated with either compounds or vehicle (DMSO) in a 12-fold dose response curve of 1:3 dilutions, with 5 μM and 10 μM as the top concentrations for the T47D and SKBR3 cell lines, respectively. Compound treatment was facilitated via the D300e digital dispenser (Tecan), with a maximum DMSO concentration of 0.5%. Following compound addition, cell plates were incubated for 2 hours in 5% CO2, 37° C. incubator. The SKBR3 cells were stimulated and treated with 70 ng/ml PDGF-BB ligand (ThermoFisher) for the remaining 15 minutes of the incubation. Following compound incubation, compound and media was aspirated from the cells and 25 μL of supplemented lysis buffer was added per well, and incubated for 45 minutes at room temperature, shaking at 600 rpm. Next, 16 μL of cell lysate was added to a 384 well low volume ProxyPlate (Perkin Elmer/Revvity) mixed with 4 μL of HTRF antibodies (1:1 Eu Cryptate+d2 Cryptate). HTRF supplemented lysis buffer and antibody reagents were used from the phosphor-AKT(S473) HTRF assay kit (CisBio/Revvity), following manufacturers protocol recommendations. Plates were sealed and incubated at 4° C. overnight.
(§3) The following day, plates were centrifuged for 1 minute at 1000 rpm, and read on a PHERAstar plate reader. IC50 values were calculated using Spotfire software.

Assay [2] relates to SKBR3 (PI3Kα-Wild Type) cell line. The experiment in a line: HTRF phospho-AKT(S473) cell assay in SKBR3 cells. It counts as cell-based, human. The protocol: as §1, §2, §3
Where [3] appears, read: HTRF phospho-AKT(S473), T47D (PI3Kα-H1047R) cells, 2 hours compound incubation.
Setting [4] is: Homo sapiens; HTRF phospho-AKT(S473), T47D (PI3Kα-H1047R) cells, 2 hours compound incubation.
Setting [5] is: Homo sapiens, SK-BR-3; HTRF phospho-AKT(S473), SKBR3 (PI3Kα-Wild Type) cells, 2 hours compound incubation, PDGF-BB stimulated.
Where [6] appears, read: Homo sapiens; T47D (PI3Kα-H1047R) cells, HTRF phospho-AKT(S473), 2 hours compound incubation.
The mark [7] stands for this setting: Homo sapiens, SK-BR-3; SKBR3 (PI3Kα-Wild Type) cells, HTRF phospho-AKT(S473), 2 hours compound incubation, PDGF-BB stimulated.

The IC50 is the concentration that inhibits the measured activity by half. High values mean a need for much substance, low ones inhibition by little substance. For `Cc1cc([C@@H](C)Nc2ccc(Cl)nc2C(=O)NS(C)(=O)=O)c2nc(N3CCCC(c4ncc(Cl)cn4)C3)n(C)c(=O)c2c1` (stereo in doubt) [Compound 587, 6-chloro-3-(((R)-1-(2-((R*)-3-(5-chloropyrimidin-2-yl)piperidin-1-yl)-3,6-dimethyl-4-oxo-3,4-dihydroquinazolin-8-yl)ethyl)amino)-N-(methylsulfonyl) picolinamide], the IC50 in assay [1] (setting [3]) is 250 to 500 nM; in assay [2] (HTRF phospho-AKT(S473), SKBR3 (PI3Kα-Wild Type) cells, 2 hours compound incubation, PDGF-BB stimulated), no less than 5000 nM.
For the molecule `Cc1cc([C@@H](C)Nc2ccc(Cl)nc2C(=O)NS(C)(=O)=O)c2nc([C@H]3[C@@H]4CN(c5cnc(C)cn5)C[C@@H]43)n(C)c(=O)c2c1` [Compound 811, 6-chloro-3-(((R)-1-(3,6-dimethyl-2-((1R,5S,6r)-3-(5-methylpyrazin-2-yl)-3-azabicyclo[3.1.0]hexan-6-yl)-4-oxo-3,4-dihydroquinazolin-8-yl)ethyl)amino)-N-(methylsulfonyl) picolinamide], the IC50 is 250 to 500 nM in assay [1] (setting [4]) and no less than 5000 nM in assay [2] (setting [5]).
On to `Cc1cc([C@@H](C)Nc2ccc(Cl)nc2C(=O)NS(C)(=O)=O)c2nc(N3CCC(c4cc(C)[nH]n4)CC3)n(C)c(=O)c2c1` [Compound 715, (R)-6-chloro-3-((1-(3,6-dimethyl-2-(4-(5-methyl-1H-pyrazol-3-yl)piperidin-1-yl)-4-oxo-3,4-dihydroquinazolin-8-yl)ethyl)amino)-N-(methylsulfonyl) picolinamide], for which the values for the IC50 in assay [1] (setting [4]) and in assay [2] (setting [5]) were less than 250 nM and 1000 to 5000 nM, respectively.
For `Cc1cc([C@@H](C)Nc2ccc(Cl)nc2C(=O)NS(C)(=O)=O)c2nc(N3CCC[C@H](c4cnc(C)nc4)C3)n(C)c(=O)c2c1` (relative stereo) [Compound 646, 6-chloro-3-(((R)-1-(3,6-dimethyl-2-((R*)-3-(2-methylpyrimidin-5-yl)piperidin-1-yl)-4-oxo-3,4-dihydroquinazolin-8-yl)ethyl)amino)-N-(methylsulfonyl) picolinamide], in that order: less than 250 nM and no less than 5000 nM.
In the case of `COc1cn(C)nc1C1CCN(c2nc3c([C@@H](C)Nc4ccc(Cl)nc4C(=O)NS(C)(=O)=O)cc(C)cc3c(=O)n2C)CC1` [Compound 316, (R)-6-chloro-3-((1-(2-(4-(4-methoxy-1-methyl-1H-pyrazol-3-yl)piperidin-1-yl)-3,6-dimethyl-4-oxo-3,4-dihydroquinazolin-8-yl)ethyl)amino)-N-(methylsulfonyl) picolinamide], the IC50 in assay [1] (setting [6]) fell in the range of 250 to 500 nM; in assay [2] (setting [7]), 1000 to 5000 nM.
For `Cc1cc([C@@H](C)Nc2ccc(Cl)nc2C(=O)NS(C)(=O)=O)c2nc(N3Cc4cn([C@@H](C)C(F)(F)F)nc4C3)n(C)c(=O)c2c1` (relative stereo) [Compound 222, 6-chloro-3-(((R)-1-(3,6-dimethyl-4-oxo-2-(2-((R*)-1,1,1-trifluoropropan-2-yl)-2,6-dihydropyrrolo[3,4-c]pyrazol-5(4H)-yl)-3,4-dihydroquinazolin-8-yl)ethyl)amino)-N-(methylsulfonyl) picolinamide], in that order: less than 250 nM and 1000 to 5000 nM.
Regarding `Cc1cc([C@@H](C)Nc2ccc(Cl)nc2C(=O)NS(C)(=O)=O)c2nc(N3C[C@@H]4C[C@H]3CN4c3cnc(C)cn3)n(C)c(=O)c2c1` [Compound 591, 6-chloro-3-(((R)-1-(3,6-dimethyl-2-((1S,4S)-5-(5-methylpyrazin-2-yl)-2,5diazabicyclo [2.2.1]heptan-2-yl)-4-oxo-3,4-dihydroquinazolin-8-yl)ethyl)amino)-N-(methylsulfonyl) picolinamide], the IC50 in assay [1] (setting [4]) was 250 to 500 nM; in assay [2] (setting [5]) it was no less than 5000 nM.
Turning to `Cc1cc([C@@H](C)Nc2ccc(Cl)nc2C(=O)NS(C)(=O)=O)c2nc(N3CCC[C@@H](Oc4cccnc4)C3)n(C)c(=O)c2c1` [Compound 343, 6-chloro-3-(((R)-1-(3,6-dimethyl-4-oxo-2-((R)-3-(pyridin-3-yloxy)piperidin-1-yl)-3,4-dihydroquinazolin-8-yl)ethyl)amino)-N-(methylsulfonyl) picolinamide], the results for the IC50 in assay [1] (setting [6]) and in assay [2] (setting [7]) were 250 to 500 nM and no less than 5000 nM, respectively.
On to `Cc1cc([C@@H](C)Nc2ccc(Cl)nc2C(=O)NS(C)(=O)=O)c2nc(-c3ccc(-c4cnn(C)c4)c(F)c3)n(C)c(=O)c2c1` [Compound 794, (R)-6-chloro-3-((1-(2-(3-fluoro-4-(1-methyl-1H-pyrazol-4-yl)phenyl)-3,6-dimethyl-4-oxo-3,4-dihydroquinazolin-8-yl)ethyl)amino)-N-(methylsulfonyl) picolinamide], for which the values for the IC50 in assay [1] (setting [4]) and in assay [2] (setting [5]) were less than 250 nM and 1000 to 5000 nM, respectively.
For `CC(=O)N1CCC(c2ccc(-c3nc4c([C@@H](C)Nc5ccc(Cl)nc5C(=O)NS(C)(=O)=O)cc(C)cc4c(=O)n3C)cc2)CC1` [Compound 782, (R)-3-((1-(2-(4-(1-acetylpiperidin-4-yl)phenyl)-3,6-dimethyl-4-oxo-3,4-dihydroquinazolin-8-yl)ethyl)amino)-6-chloro-N-(methylsulfonyl) picolinamide], in that order: less than 250 nM and 1000 to 5000 nM.
`Cc1cc([C@@H](C)Nc2ccc(Cl)nc2C(=O)NS(C)(=O)=O)c2nc(N3CCC(c4ncc(C#N)cc4C)CC3)n(C)c(=O)c2c1` [Compound 266, (R)-6-chloro-3-((1-(2-(4-(5-cyano-3-methylpyridin-2-yl)piperidin-1-yl)-3,6-dimethyl-4-oxo-3,4-dihydroquinazolin-8-yl)ethyl)amino)-N-(methylsulfonyl) picolinamide]: the figures for the IC50 in assay [1] (setting [6]) and in assay [2] (setting [7]) were less than 250 nM and 1000 to 5000 nM, respectively.
The like results for `COc1cnn(C2CCN(c3nc4c([C@@H](C)Nc5ccc(Cl)nc5C(=O)NS(C)(=O)=O)cc(C)cc4c(=O)n3C)CC2)c1` [Compound 311, (R)-6-chloro-3-((1-(2-(4-(4-methoxy-1H-pyrazol-1-yl)piperidin-1-yl)-3,6-dimethyl-4-oxo-3,4-dihydroquinazolin-8-yl)ethyl)amino)-N-(methylsulfonyl) picolinamide] were, in that order, less than 250 nM and 1000 to 5000 nM.
For `Cc1cc([C@@H](C)Nc2ccc(Cl)nc2C(=O)NS(C)(=O)=O)c2nc(N3CCN(c4ccc(N)nc4)CC3)n(C)c(=O)c2c1` [Compound 174, (R)-3-((1-(2-(4-(6-aminopyridin-3-yl)piperazin-1-yl)-3,6-dimethyl-4-oxo-3,4-dihydroquinazolin-8-yl)ethyl)amino)-6-chloro-N-(methylsulfonyl) picolinamide], in that order: less than 250 nM and 1000 to 5000 nM.
The like results for `C[C@@H](Nc1ccc(Cl)nc1C(=O)NS(C)(=O)=O)c1cc(F)cc2c(=O)n(C)c(N3C[C@@H]4[C@H](C3)[C@H]4c3ccnn3C)nc12` [Compound 374, 6-chloro-3-(((R)-1-(6-fluoro-3-methyl-2-((1R,5S,6R)-6-(1-methyl-1H-pyrazol-5-yl)-3-azabicyclo[3.1.0]hexan-3-yl)-4-oxo-3,4-dihydroquinazolin-8-yl)ethyl)amino)-N-(methylsulfonyl) picolinamide] were, in that order, less than 250 nM and 1000 to 5000 nM.
For the molecule `Cc1cc([C@@H](C)Nc2ccc(Cl)nc2C(=O)NS(C)(=O)=O)c2nc(N3C[C@H]4C[C@@H]3CN4c3nccnc3C)n(C)c(=O)c2c1` [Compound 624, 6-chloro-3-(((R)-1-(3,6-dimethyl-2-((1R,4R)-5-(3-methylpyrazin-2-yl)-2,5-diazabicyclo [2.2.1]heptan-2-yl)-4-oxo-3,4-dihydroquinazolin-8-yl)ethyl)amino)-N-(methylsulfonyl) picolinamide], the IC50 in assay [1] (setting [4]) is 250 to 500 nM; in assay [2] (setting [5]) it was no less than 5000 nM.
In assay [1] (setting [3]), `Cc1cc([C@@H](C)Nc2ccc(Cl)nc2C(=O)NS(C)(=O)=O)c2nc(N3C[C@@H]4C[C@H]3C[C@@H]4c3nn(C)cc3F)n(C)c(=O)c2c1` (relative stereo) [Compound 760, 6-chloro-3-(((R)-1-(2-((1R*,4S*,5R*)-5-(4-fluoro-1-methyl-1H-pyrazol-3-yl)-2-azabicyclo[2.2.1]heptan-2-yl)-3,6-dimethyl-4-oxo-3,4-dihydroquinazolin-8-yl)ethyl)amino)-N-(methylsulfonyl) picolinamide] returned an IC50 of 250 to 500 nM.

The record behind these values is patent US12281122B1, “PI3K inhibitors” (Cogent Biosciences, Inc., priority 2023, dated 2025).
